Results on five compounds are retold here after US9539272B2, “HDAC 6 inhibitor-based methods for treating cancer” (SLOAN-KETTERING INSTITUTE FOR CANCER RESEARCH, priority 2009, dated 2017).

For one assay, the target named is recombinant human HDAC1 (Homo sapiens, UniProt Q13547). Kind of assay: In vitro HDAC assay with fluorogenic substrate, HDAC 1.
The subject of assay [1] is acetylated α-tubulin and acetylated histone H3 in LNCaP cells. Kind of assay: Accumulation of acetylated α-tubulin and acetylated histone H3 in LNCaP cells (Western blot). Type of assay: cell-based, human. To be noted: BAHA 1.0 or 1.5 μM, SAHA 1.5 and 2.0 μM. On the procedure: 2×10^6 transformed cells were cultured for 24 hrs in a 10 cm tissue culture dish with 10 ml RPMI 1640 medium. HDAC inhibitors and/or other agents were added in concentrations as indicated for each study to the cultures and cell cultured for times indicated. Cells were harvested by scrapping, washed once with PBS, lyzed with histone extraction buffer (1 ml/10^7 cells), which contains 10 mM MgCl2, 10 mM Tris, 25 mM KCl, 1% Triton X-100, 8.6% sucrose and protease inhibitor cocktail (Roche Diagnostics Gmbh, Indianapolis, Ind.), pH 6.5. Cells were centrifuged at 600 g at 4° C. for 5 mins. The supernatants were saved as cell lyates. The pellets (nuclei) were washed once with TE buffer, suspended in 0.4 NH2SO4 (100 μl/10^7 cells), incubated for 1 hr on ice, and centrifuged at 10,000 g for 10 mins at 4° C. The supernatant was collected, mixed with 1 ml acetone, incubated at −20° C. for more than 1 hr, and centrifuged at 10,000 g for 10 mins at 4° C. The pellets were suspended in water (100 μl/10^7 cells). The protein concentrations were measured with Braford reagent (Bio-Rad, Hercules, Calif.).
1×10^6 cells in a 10 cm diameter cell culture dish were washed with PBS, harvested by trypsinization in 0.05% trypsin for LNCaP and 0.25% trypsin for MCF7, A549, HFS and WI38 resuspended in RIPA at 50 μl for every 1×10^6 cells. Antibodies used were: anti-acetylated tubulin (Sigma), anti-HDAC 6 (Santa Cruz Biotechnology), and anti-tubulin (Calbiochem), (Xu et al. Cancer Research, 65:7832-7839, 2005).

For assay [2], the system named is LNCaP cells. Briefly: Cell growth and viability by trypan blue exclusion, LNCaP.
Procedure: (§1) 5×10^4 cells were seeded per well in a 24-well plate and cultured overnight prior to treating with the compound and/or other agents as indicated for each study. Cells were harvested at 24, 48 and 72 hrs after treatment by trypsin digestion. […] At least three independent analyses were performed for each time point.
(§2) To monitor cell growth and viability, cells were seeded in triplicate at 5×10^4 cells in 1 ml of medium in 24-well plates. The drugs were added at the indicated concentrations 24 h after seeding. Cells were harvested by trypsin digestion at 24 h, 48 h and 72 h following drug additions. Cell number and viability were determined by trypan blue exclusion.
Assay [3] has as its system acetylated tubulin and acetylated histone H3 in A549 cells. To be noted: 24 hrs, tubacin 0.2, 2 or 20 μM; cited from earlier work.
The subject of assay [4] is LNCaP HDAC 6 knockdown cells. Kind of assay: Cell viability, LNCaP HDAC 6 knockdown cells. Type of assay: cell-based, human. The text has this:
shRNA lentiviral particles targeting different regions of HDAC6 mRNA, HDAC6 KD1 (HDAC6 knockdown 1) at 1.7×10^7 TU/ml and HDAC6 KD2 (HDAC6 knockdown 2) at 1.9×10^7 TU/ml, and a non-targeting ‘scramble’ shRNA control particles (#SHC002V) at 1.1×10^7 TU/ml, were purchased from Sigma-Aldrich and transfected according to the manufacturer's instructions using polybrene (Millipore). The 21-nucleotide sequence corresponding to HDAC6 mRNA for HDAC6 KD1 is 5′-[…]-3′ and for HDAC6 KD2 is 5′-[…]-3′. For each shRNA, 5×10^5 cells were infected at an MOT of 2.

The subject of a further assay is MCF-7 cells. Briefly: Cell growth and viability by trypan blue exclusion, MCF-7. Type of assay: cell-based, human. The settings on record: MCF-7, 72 hrs; 8 μM tubacin, 5 μM SAHA, […] doxorubicin, 100 μM etoposide, alone or plus 8 μM tubacin.
Assay [5] relates to LNCaP cells. Kind of assay: Cell cycle analysis by flow cytometry, LNCaP. Type of assay: cell-based, human. To be noted: 24 h, propidium iodide. On the procedure:
Cells were harvested at 24 h culture with the indicated drugs, washed with PBS and fixed in methanol. Cells were then resuspended in a buffer containing […] propidium iodide and […] RNase A. Samples were analysed by flow cytometry using a Becton Dickinson FACSCalibur flow cytometer. Data were collected for 10,000 events and analyzed using FlowJo software.

The test system of assay [6] is LNCaP cells. Kind of assay: Quantitative real-time PCR in LNCaP cells. The settings on record: for expression of Mcm4, Mcm6, Cdt1 and Psf2: quantitative real-time PCR. Type of assay: cell-based, human. On the procedure:
[…] of total RNA was reverse-transcribed using the Thermoscript RT-PCR system (Invitrogen) at 52° C. for 1 h. 20 ng of resultant cDNA was used in a Q-PCR reaction using an 7500 Real-Time PCR System (Applied Biosystems) using predesigned primers for DDIT3, DDIT4, Mcm4, Mcm6, Cdt1, Psf2 and GAPDH (Applied Biosystems). Amplification was carried for 40 cycles (95° C. for 15 sec, 60° C. for 1 min). To calculate the efficiency of the PCR reaction, and to assess the sensitivity of each assay, we performed a 6 point standard curve (5, 1.7, 0.56, 0.19, 0.062, and 0.021 ng). Triplicate CT values were averaged, amounts of target were interpolated from the standard curves and normalized to GAPDH (assay Hs99999909_m1).

Another assay relates to WI38 cells. Briefly: Cell viability, normal human embryonic fibroblast WI38. Type of assay: cell-based. To be noted: 8 μM tubacin, 5 μM SAHA, alone or together.
Another assay concerns γH2AX. Briefly: Accumulation of γH2AX in LNCaP cells (Western blot, ImageJ quantitation). Type of assay: cell-based, human. The settings on record: 24 h.
The subject of another assay is HFS cells. Briefly: Cell viability, normal human foreskin cells (HFS). Type of assay: cell-based. The settings on record: 8 μM tubacin, 5 μM SAHA, alone or together.
The subject of assay [7] is LNCaP cells. Briefly: Microarray analysis of gene expression in LNCaP cells. Type of assay: cell-based, human. Set-up: Total gene number: dose or concentration left out as unconfirmed. On the procedure: Alterations in gene expression were evaluated by microarray using the Illumina human cDNA array containing cDNA probes representing the whole genome (10000 genes). […] Triplicate samples were prepared for each drug treatment at each time point. Poly(A)+ mRNA was isolated from cells using Trizol reagent according to manufacturer's protocol (Invitrogen). The data was analyzed using the Bioconductor packages (www.bioconductor.com) for the R statistical system. The output from Beadstudio was processed using the LUMI package. The normalization method used was quantile and the signal levels were log (base 2) transformed. To determine genes that are differentially expressed between the various sample types, the LIMMA package was used.

Where “and” joins values, the source holds several entries; their conditions need not be identical. Identical values can stand only once. Entries after “also recorded” stand apart in the source; their conditions may differ.

Chain of recombinant human HDAC1 (Q13547 whole entry): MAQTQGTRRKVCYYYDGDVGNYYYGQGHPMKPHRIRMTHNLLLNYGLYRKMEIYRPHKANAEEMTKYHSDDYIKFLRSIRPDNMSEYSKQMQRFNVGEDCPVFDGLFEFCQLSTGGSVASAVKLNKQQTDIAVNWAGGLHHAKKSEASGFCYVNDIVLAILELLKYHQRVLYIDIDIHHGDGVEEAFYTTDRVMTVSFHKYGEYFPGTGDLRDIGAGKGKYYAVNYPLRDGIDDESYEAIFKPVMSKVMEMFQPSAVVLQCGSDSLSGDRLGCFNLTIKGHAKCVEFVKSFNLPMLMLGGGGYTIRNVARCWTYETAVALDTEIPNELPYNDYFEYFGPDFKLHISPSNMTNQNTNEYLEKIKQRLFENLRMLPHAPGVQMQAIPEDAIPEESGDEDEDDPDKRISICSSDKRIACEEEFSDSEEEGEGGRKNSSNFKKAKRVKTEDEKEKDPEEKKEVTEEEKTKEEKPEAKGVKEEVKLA
Procedure for HFS cells: as §1, §2
Procedure for MCF-7 cells: as §1, §2
Procedure for WI38 cells: as §1
Procedure for recombinant human HDAC1: Inhibition of HDAC 1 and HDAC 6 were analyzed with a fluorogenic substrate according to manufacture's protocol (HDAC assay reagents were purchased from BPS Biosciences, San Diego, Calif.). 50 μl reaction mixture, which contains 1×HDAC assay buffer, 5 units of recombinant human HDAC1 or HDAC 6, 10 μM substrate 3 and 1 μl inhibitor in DMSO, was incubated at 37° C. for 1 hour. […] The fluorescence intensity was measured at excitation of 360 nm and emission of 460 nm with SpectraMax Gemini XS microplate reader (Molecular Devices, Sunny Calif.).
Procedure for γH2AX: 1×10^6 cells were seeded in a 10 cm diameter cell culture dish and cultured overnight prior to addition of the indicated drugs, washed with PBS, harvested by trypsinisation and lysed in RIPA buffer (50 mM Tris-HCL pH8.0, 120 mM NaCl, 0.5 mM EDTA, 0.5% NP-40). […] Quantitation of western blots was performed using ImageJ.

For the compound `CC(C)(C)OC(=O)Nc1ccc(-c2cc(C(=O)NCCCCCCC(=O)NO)no2)cc1` [BAHA], on recombinant human HDAC1, the IC50 amounted to 53.7 nM. Also, in assay [1], the “accumulation of acetylated histone H3” value is “little or no accumulation” and the “accumulation of acetylated α-tubulin” value is given as “caused the accumulation”. Besides, in the assay with LNCaP cells [2] (LNCaP, 1 μM BAHA), the cell death entry is “no cell death” and the cell growth entry is reported as “moderate inhibition”.

Turning to `CC(/C=C/C(=O)NO)=C\[C@@H](C)C(=O)c1ccc(N(C)C)cc1` [Trichostatin A], in assay [3], the “accumulation of acetylated histone H3” value is “caused the accumulation” and the “accumulation of acetylated tubulin” value is “caused the accumulation”.

In the case of `COc1cccc2c1C(=O)c1c(O)c3c(c(O)c1C2=O)C[C@@](O)(C(=O)CO)C[C@@H]3O[C@H]1C[C@H](N)[C@H](O)[C@H](C)O1` [doxorubicin], the cell death in [4] (LNCaP HDAC 6 knock down, 10 nM doxorubicin, 72 hrs) is reported as 85%; in assay [4] (LNCaP HDAC 6 knock down, 100 nM doxorubicin, 72 hrs), 90%; in [4] (LNCaP HDAC 6 knock down, 500 nM doxorubicin, 72 hrs), 95%; in the assay on LNCaP cells [2] (LNCaP, 5 nM doxorubicin, alone or plus 8 μM tubacin, 48 hrs) it was 40%; in the assay on LNCaP cells [2] (LNCaP, […] doxorubicin, alone or plus 8 μM tubacin, 48 hrs), 80%; in the assay on LNCaP cells [2] (wild type LNCaP, 10 nM doxorubicin, 72 hrs), 45%. In addition, the cell death in the assay with LNCaP cells [2] (wild type LNCaP, 100 nM doxorubicin, 72 hrs) was found to be 75%; in the assay with LNCaP cells [2] (wild type LNCaP, 500 nM doxorubicin, 72 hrs) it was 85%; in the assay on MCF-7 cells, 25%. The “rate of cell growth” value was “decreased” in the assay on LNCaP cells [2] (LNCaP, 10 nM doxorubicin, alone or plus 8 μM tubacin) and “markedly decreased” with MCF-7 cells.

In the case of `COc1cc([C@@H]2c3cc4c(cc3[C@@H](O[C@@H]3O[C@@H]5CO[C@@H](C)O[C@H]5[C@H](O)[C@H]3O)[C@H]3COC(=O)[C@H]23)OCO4)cc(OC)c1O` [etoposide], the cell cycle distribution result in the assay with LNCaP cells [5] is given as “small increase in cells in G1”. Moreover, the “expression of Mcm4, Mcm6, Cdt1 and Psf2” value with LNCaP cells [6] was “downregulated”. Besides, the cell death is 20% in [4] (LNCaP HDAC 6 knockdown, 10 μM etoposide, 48 hrs); 35% in [4] (LNCaP HDAC 6 knockdown, 50 μM etoposide, 48 hrs); 55% in [4] (LNCaP HDAC 6 knockdown, 100 μM etoposide, 48 hrs); 50% with LNCaP cells [2] (LNCaP, 50 μM etoposide, alone or plus 8 μM tubacin, 72 hrs); 80% in the assay with LNCaP cells [2] (LNCaP, 100 μM etoposide, alone or plus 8 μM tubacin, 72 hrs); 10% in the assay on LNCaP cells [2] (wild type LNCaP, 10 μM etoposide, 48 hrs). In addition, the cell death with LNCaP cells [2] (wild type LNCaP, 50 μM etoposide, 48 hrs) stood at 30%; in the assay on LNCaP cells [2] (wild type LNCaP, 100 μM etoposide, 48 hrs), 40%; with MCF-7 cells, 30%. Besides, in the assay with MCF-7 cells, the “rate of cell growth” value is “markedly decreased”.

With `O=C(CCCCCCC(=O)Nc1ccc([C@H]2O[C@@H](CSc3nc(-c4ccccc4)c(-c4ccccc4)o3)C[C@@H](c3ccc(CO)cc3)O2)cc1)NO` [tubacin], the cell cycle distribution result in the assay on LNCaP cells [5] is given as “increase in G1 arrest”. Also, the cell death result in the assay with WI38 cells is given as “did not cause cell death”; with LNCaP cells [2] (LNCaP, tubacin alone (8 μM), up to 72 hrs), “did not cause cell death; also recorded: did not induce LNCaP cell death”; in the assay with HFS cells, “did not cause cell death”; in the assay with MCF-7 cells it was “did not induce MCF-7 cell death”. Also, the “DDIT4 expression by quantitative real-time PCR” value in the assay on LNCaP cells [6] was “upregulation”. The “expression of Mcm4, Mcm6, Cdt1 and Psf2” value with LNCaP cells [6] was “downregulated”. In the assay with γH2AX, the “accumulation of γH2AX” value is recorded as “increased”. Further, at recombinant human HDAC1, the IC50 is 82 nM. Further, the “accumulation of acetylated histone H3” value in assay [3] is given as “but not acetylated histone H3”. Moreover, the “accumulation of acetylated tubulin” value in assay [3] is reported as “caused an accumulation”. Besides, the “rate of cell growth” value in the assay with MCF-7 cells is reported as “somewhat decreased”. Besides, the “DDIT3 gene expression change” value is “* (No detectable change of ≧2-fold)” with LNCaP cells [7] (2 h); 7 fold and 7.04 fold in the assay with LNCaP cells [7] (24 h). Also, the Total gene number amounted to 1 in the assay with LNCaP cells [7] (2 h, genes changed ≧2-fold); 7 in the assay on LNCaP cells [7] (8 h, ≧2-fold); 225 in the assay on LNCaP cells [7] (24 h, ≧2-fold). The Downregulated genes was 0 with LNCaP cells [7] (2 h, ≧2-fold); 1 in the assay with LNCaP cells [7] (8 h, ≧2-fold); 72 in the assay on LNCaP cells [7] (24 h, ≧2-fold). In addition, the Upregulated genes in the assay on LNCaP cells [7] (2 h, ≧2-fold) came to 1; in the assay on LNCaP cells [7] (8 h, ≧2-fold), 6; with LNCaP cells [7] (24 h, ≧2-fold), 153. The “DDIT4 gene expression change” value in the assay with LNCaP cells [7] (8 h) was 5.54 fold; with LNCaP cells [7] (24 h), 6.8 fold.
